Laboratory results: BindingDB's records for doi:10.1021/jm991098z (Friedrich-Alexander University, 2000)

What was measured:
D(4) dopamine receptor = molecular target: T1, D(4) dopamine receptor (Homo sapiens, UniProt P21917); assay: Binding Affinity was tested on relative proportion of High Affinity Site of Dopamine receptor D4.4
T1 sequence (P21917 whole entry): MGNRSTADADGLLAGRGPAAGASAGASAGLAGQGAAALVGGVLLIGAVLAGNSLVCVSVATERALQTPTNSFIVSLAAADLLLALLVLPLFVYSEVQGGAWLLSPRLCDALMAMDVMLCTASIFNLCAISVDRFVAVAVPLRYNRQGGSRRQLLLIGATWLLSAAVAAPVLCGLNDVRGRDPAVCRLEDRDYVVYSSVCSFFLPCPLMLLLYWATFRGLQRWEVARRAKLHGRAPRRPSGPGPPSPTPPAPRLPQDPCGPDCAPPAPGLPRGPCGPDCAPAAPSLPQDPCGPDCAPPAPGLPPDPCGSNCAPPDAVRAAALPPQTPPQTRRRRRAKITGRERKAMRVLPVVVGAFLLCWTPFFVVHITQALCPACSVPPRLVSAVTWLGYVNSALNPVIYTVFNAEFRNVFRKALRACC

D(2) dopamine receptor [1] = molecular target: T2, D(2) dopamine receptor (Homo sapiens, UniProt P14416); assay: Binding Affinity was tested on relative proportion of High Affinity Site of Dopamine receptor D2S
T2 sequence (P14416 whole entry): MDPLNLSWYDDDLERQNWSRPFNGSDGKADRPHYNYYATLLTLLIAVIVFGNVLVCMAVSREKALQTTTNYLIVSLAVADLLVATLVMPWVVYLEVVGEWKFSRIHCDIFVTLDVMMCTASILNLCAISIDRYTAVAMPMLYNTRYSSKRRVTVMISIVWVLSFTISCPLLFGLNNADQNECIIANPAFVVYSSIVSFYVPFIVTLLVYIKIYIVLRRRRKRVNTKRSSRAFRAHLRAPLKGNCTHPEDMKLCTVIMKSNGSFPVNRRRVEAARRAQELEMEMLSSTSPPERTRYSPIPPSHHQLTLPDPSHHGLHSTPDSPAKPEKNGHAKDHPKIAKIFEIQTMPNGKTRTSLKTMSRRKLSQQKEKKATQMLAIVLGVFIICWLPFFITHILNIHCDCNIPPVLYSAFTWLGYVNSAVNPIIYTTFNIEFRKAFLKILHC

D(2) dopamine receptor [2] = molecular target: T2, D(2) dopamine receptor; assay: Binding Affinity was tested on relative proportion of High Affinity Site of Dopamine receptor D2L
[3] = Binding Affinity was tested on relative proportion of High Affinity Site of Dopamine receptor D3

## C#CC1=CCC(N(CCC)CCC)CC1 (configuration not stated) [(4-Ethynyl-cyclohex-3-enyl)-dipropyl-amine]
D(4) dopamine receptor
  RH: 38%
D(2) dopamine receptor [1]
  RH: 34%
D(2) dopamine receptor [2]
  RH: 38%

## CCCN(CCC)C1CC=C(C#C[Si](C)(C)C)CC1 (configuration not stated) [Dipropyl-(4-trimethylsilanylethynyl-cyclohex-3-enyl)-amine]
[3]
  Ki: 23 nM
D(4) dopamine receptor
  RH: 54%
D(2) dopamine receptor [1]
  RH: 17%
D(2) dopamine receptor [2]
  RH: 16%
